Experimental data taken from publication PMC8495142 (Drug Design, Development and Therapy, 2021).

Legend:
[1] = type: in vitro ADME, beagle dog; details: all four storage conditions, 2.5, 50 and 150 ng/mL
[2] = system: CYP3A; details: in vitro; cited from earlier work
[3] = system: CYP2D6; details: in vitro; cited from earlier work

In the case of CC[C@@H]1CN(C(=O)NCC(F)(F)F)C[C@@H]1c1cnc2cnc3[nH]ccc3n12 [Upadacitinib], the “Stability in beagle dog plasma (in words)” value [1] is given as “stable”, the “Metabolism by CYP3A” value [2] is given as “mainly metabolized by CYP3A” and the “Metabolism by CYP2D6” value [3] is given as “a small part by CYP2D6”.
